Laboratory results published in US7816407B2, “Agmatine and agmatine analogs in the treatment of epilepsy, seizure, and electroconvulsive disorders” (University of Kentucky Research Foundation, priority 2000, dated 2010).

Assays:
[1] = tested on: MES-induced seizure spread (hindlimb tonic extension); assay: Maximal Electroshock Seizure (MES) test; assay type: in vivo, rat
From the text: The MES is an experimental model for generalized tonic-clonic seizures that identifies compounds which prevent seizure spread. The MES model is highly reproducible and has a consistent endpoint. An advantage of this model is that the behavioral and electrographic seizures are consistent with those observed in humans (Levy, R. H., Antiepileptic drugs. 3rd Ed. 1989, New York: Raven Press. xxvii, 1025. p. 85-102).
In the MES test, the animal receives an electrical stimulus, 0.2 seconds in duration, via corneal electrodes primed with an electrolyte solution containing an anesthetic agent. The 0.2 second stimulation is generated with 150 mA in rats at 60 Hz. Twenty rats, weighing between 105 g and 130 g receive an electrical stimulus 15 minutes, 30 minutes, 1 hour, 2 hours, 4 hours, 8 hours and 12 hours after oral administration of a dose of about 30 mg/kg of agmatine in phosphate buffered in saline per kg of the animal. The test endpoint, electrogenic seizure, is manifested as hindlimb tonic extension.

rats [2] = assay: Positional sense test; assay type: in vivo, rat; conditions: oral or intraperitoneal, 30 mg/kg
Protocol: (§1) Toxicity in mice and rats is assessed using three screens: the rotorod in mice, positional sense, and gait in rats. In mice, the test compound is administered at doses of 30, 100, and 300 mg/kg prior to evaluation in the toxicity screens. The mice are tested 0.5 hours and 4 hours after administration of the test compound. In rats, the test compound is administered at 30 mg/kg prior to the toxicity assessment. The rats are tested at 0.25, 0.5, 1, 2, and 4 hours after administration of the test compound.
Behavioral toxicity in rats weighing between 105 and 130 g is assessed by the positional sense test. […] If the rat experiences neurological toxicity, it will not be able to quickly lift its leg back to a normal position.

mice = assay: Rotorod neurotoxicity test; assay type: in vivo, mouse; conditions: doses as high as 300 mg/kg
Protocol: as §1
Toxicity in mice weighing between 20.5 and 25.5 g is assessed using the standardized rotorod test (Dunham, M. S. and T. A. Miya, A note on a simple apparatus for detecting neurological deficit in rats and mice, J. Am. Pharm. Assoc. Sci. Edit (1957) 46:208-209). Control mice can maintain their equilibrium for an extended period of time when they are placed on a 6 rpm rotation rod. Neurologically impaired animals cannot maintain equilibrium for one minute in each of three successive trials.

rats [3] = assay: Gait and stance test; assay type: in vivo, rat; conditions: oral or intraperitoneal, 30 mg/kg
Protocol: as §1
In the gait and stance test, neurotoxicity is indicated by a circular or zigzag gait after administration of the test compound. In addition, ataxia, abnormal spread of the legs, abnormal posture, tremor hyperactivity, lack of exploratory behavior, somnolence, stupor, or catalepsy can indicate neurotoxicity. This toxicity test was conducted on 20 rats, weighing between 105 and 130 g.

With `NCCCCN=C(N)N` [agmatine, 4-aminobutylguanidine] the “rats protected from MES-induced seizure spread” value (shortened to “rats protected”) ([1]; intraperitoneal, 4 hours before electrical shock) was 50%, the “rats protected” value ([1]; oral 30 mg/kg, shock 0.25 hours after administration) was 37.5% and the “rats protected” value ([1]; oral 30 mg/kg, shock 0.5 hours after administration) was 12.5%. The “rats protected” value ([1]; oral 30 mg/kg, shock 2 hours after administration) was 12.5%, the “rats protected” value ([1]; oral 30 mg/kg, shock 4 hours after administration) was 75% and the “rats protected” value ([1]; oral 30 mg/kg, shock 6 hours after administration) was 25%. For the same compound, the “neurotoxicity in positional sense test” value (rats [2]) was “no neurotoxicity”, the “behavioral or neurotoxicity in rotorod test” value (mice) was “none of these animals showed any evidence of behavioral or neurotoxicity” and the “neurotoxicity in gait and stance test” value (rats [3]) was “no neurotoxicity”.
